The nature of series [1]: logP. It counts as physicochemical.
Series [2] can be described thus: Pharmacokinetics in mice (UPLC/MS). It is filed as in vivo, mouse. Set-up: distribution from blood into tissue / oral availability: dose or concentration left out as unconfirmed. The note with it: for half-life: iv, 10 mg/kg i.v. From the text:
Pharmacokinetics. Twelve week-old male C57BI/6Jmice were purchased from Charles River Laboratories (Wilmington, Mass.) and housed in microisolator cages with rodent chow and autoclaved water ad libitum. All experiments were in accordance with National Institutes of Health guidelines and approved by the University of California, Davis, Institutional Animal Care and Use Committee. […] At various time points after the injection blood was collected into EDTA blood sample collection tubes either from the saphenous vein or by cardiac puncture under deep isoflurane anesthesia. Following the cardiac puncture mice were sacrificed by cutting the heart and then the brain was removed. Individual mice were typically used for 3 times points (2 blood collections from the saphenous vein plus the terminal blood collection). Plasma was separated by centrifugation and plasma and brain samples were stored at −80 °C pending analysis. Brain samples were homogenized in 1 ml of H2O with a Brinkman Kinematica PT 1600E homogenizer and the protein precipitated with 1 ml of acetonitrile. The samples were then centrifuged at 3000 rpm and supernatants concentrated to 1 ml. Plasma and homogenized brain samples were purified using C18 solid phase extraction cartridges (ThermoFisher Scientific, Waltham, Mass., USA) preconditioned with acetonitrile followed by 1 ml of water. The loaded column was washed with 2 ml of water. […] Eluted fractions were dried under nitrogen and reconstituted in acetonitrile. LC/MS analysis was performed with a Waters Acquity UPLC (Waters, New York, N.Y.) equipped with a Acquity UPLC BEH 1.7 μm RP-18 column (Waters, New York, N.Y.) interfaced to a TSQ Quantum Access Max mass spectrometer (MS) (ThermoFisher Scientific, Waltham, Mass., USA). The isocratic mobile phase consisted of 80% acetonitrile and 20% water, both containing 0.1% formic acid with a flow rate of 0.25 ml/min.

Series [3] addresses rKCa2.2 (UniProt P0DP23+P70604). Briefly: Whole-cell patch-clamp KCa2.2 activation (HEK-293).
Series [4] deals with KCa3.1−/− mice. Put plainly: Telemetry in KCa3.1−/− mice. The note with it: 100 mg/kg i.p.
Series [5] concerns the target KCa3.1 (Homo sapiens, UniProt O15554+P0DP23). Put plainly: Whole-cell patch-clamp KCa3.1 activation (QPatch, HEK-293). It counts as cell-based. The arrangement: host or cells: HEK-293. The text has this: Cells, Cell lines and Clones. […] The cloning of hKCa2.3 (19 CAG repeats) and hKCa3.1 has been previously described (Wulff et al., 2000). The hKCa2.3 clone was later stably expressed in COS-7 cells at Aurora Biosciences Corp., San Diego, Calif. Cell lines stably expressing other mammalian ion channels were gifts from several sources: hKCa1.1 in HEK-293 cells (Andrew Tinker, University College London); hKV2.1 in HEK293 cells (James Trimmer, UC Davis); KV11.1 (HERG) in HEK-293 cells (Craig January, University of Wisconsin, Madison); hNaV1.4 in HEK-293 cells (Frank Lehmann-Horn, University of Ulm, Germany), hNaV1.5 in HEK-293 cells (Christopher Lossin, University of California Davis), and hCaV1.2 in HEK-293 cells (Franz Hofmann, Munich, Germany).
Electrophysiology. Experiments were conducted either manually with an EPC-10 amplifier (HEKA, Lambrecht/Pfalz, Germany) or on a QPatch-16 automated electrophysiology platform (Sophion Biosciences, Denmark). […] Patch pipettes were pulled from soda lime glass (micro-hematocrit tubes, Kimble Chase, Rochester, N.Y.) and had resistances of 2-3 MΩ. […] Free Ca^2+ concentrations were calculated with MaxChelator assuming a temperature of 25° C., a pH of 7.2 and an ionic strength of 160 mM. […] Na^+ aspartate Ringer was used as an external solution (in mM): 160 Na^+ aspartate, 4.5 KCl, 2 CaCl2, 1 MgCl2, 5 HEPES, pH 7.4, 290-310 mOsm. […] Reduction of both peak and tail current by the drug was determined. NaV1.7 currents were recorded with 30 ms pulses from −90 mV to −10 mV every 10 sec with a CsF-based pipette solution and normal Ringer as an external solution. CaV1.2 currents were elicited by 100-ms depolarizing pulses from −80 to 20 mV every 10 sec with a CsCl-based pipette solution and an external solution containing 30 mM BaCl2. Blockade of both Na^+ and Ca^2+ currents was determined as reduction of the current minimum.
For automated electrophysiology experiments cells were grown to ˜70% confluency, rinsed in sterile PBS containing 0.02% EDTA, and lifted with 2 mL of TrypLE™ Express (Gibco, Grand Island, N.Y.) for ˜2 min. When cells were rounded but not detached, they were dislodged by gentle tapping, suspended in DMEM, centrifuged and resuspended in 1 ml of external solution, placed into the Qfuge tube and resuspended in 150-200 μL extracellular solution after one additional spin on the QPatch. Whole-cell patch-clamp experiments were then carried out using disposable 16-channel planar patch chip plates (QPlates; patch hole diameter approximately 1 μm, resistance 2.00±0.02 MΩ). […] In order to avoid rejection of cells with large KCa3.1 currents the minimum seal resistance for whole-cell requirement was lowered to 0.001 GΩ. […] Following establishment of the whole-cell configuration, cells were held at −80 mV and KCa3.1, KCa2.1 or KCa2.2 currents elicited by a voltage protocol that held at −80 mV for 20 ms, stepped to −120 mV for 20 ms, ramped from −120 to 40 mV in 200 ms and then stepped back to −120 mV for 20 ms. This pulse protocol was applied every 10 s. […] NaV1.2 currents from N1E-115 cells, NaV1.4 and NaV1.5 currents from stably transfected HEK cells were recorded with 20 ms pulses from −90 mV to 0 mV every 10 sec with a KF-based internal solution and normal Ringer as an external solution. Current slopes (in ampere per sec) were measured using the SophionQPatch software and exported to Microsoft Excel and Origin 7.0 (OriginLab Corp. MA) for analysis. […] Data fitting to the Hill equation to obtain EC50 and IC50 values was performed with Origin 7.0. Data are expressed as mean±SD.
On the technique in general: In patch-clamp work, channel activity is measured electrically.

Series [6] concerns the target T1, hNaV1.4 (Homo sapiens, UniProt P35499).
T1 construct: host or cells: HEK-293
Put plainly: NaV1.4 current inhibition (HEK-293). It is filed as cell-based. The following applies: HEK293.

Molecules are shown by their SMILES. Values joined by “and” are separate entries in the source; they are usually repeats but may differ in a detail not shown here. Equal values may be shown once. “Also recorded” adds a separate entry of the source. Read-outs that look alike come from different tables or passages of the source.

T1 sequence (P35499 whole entry): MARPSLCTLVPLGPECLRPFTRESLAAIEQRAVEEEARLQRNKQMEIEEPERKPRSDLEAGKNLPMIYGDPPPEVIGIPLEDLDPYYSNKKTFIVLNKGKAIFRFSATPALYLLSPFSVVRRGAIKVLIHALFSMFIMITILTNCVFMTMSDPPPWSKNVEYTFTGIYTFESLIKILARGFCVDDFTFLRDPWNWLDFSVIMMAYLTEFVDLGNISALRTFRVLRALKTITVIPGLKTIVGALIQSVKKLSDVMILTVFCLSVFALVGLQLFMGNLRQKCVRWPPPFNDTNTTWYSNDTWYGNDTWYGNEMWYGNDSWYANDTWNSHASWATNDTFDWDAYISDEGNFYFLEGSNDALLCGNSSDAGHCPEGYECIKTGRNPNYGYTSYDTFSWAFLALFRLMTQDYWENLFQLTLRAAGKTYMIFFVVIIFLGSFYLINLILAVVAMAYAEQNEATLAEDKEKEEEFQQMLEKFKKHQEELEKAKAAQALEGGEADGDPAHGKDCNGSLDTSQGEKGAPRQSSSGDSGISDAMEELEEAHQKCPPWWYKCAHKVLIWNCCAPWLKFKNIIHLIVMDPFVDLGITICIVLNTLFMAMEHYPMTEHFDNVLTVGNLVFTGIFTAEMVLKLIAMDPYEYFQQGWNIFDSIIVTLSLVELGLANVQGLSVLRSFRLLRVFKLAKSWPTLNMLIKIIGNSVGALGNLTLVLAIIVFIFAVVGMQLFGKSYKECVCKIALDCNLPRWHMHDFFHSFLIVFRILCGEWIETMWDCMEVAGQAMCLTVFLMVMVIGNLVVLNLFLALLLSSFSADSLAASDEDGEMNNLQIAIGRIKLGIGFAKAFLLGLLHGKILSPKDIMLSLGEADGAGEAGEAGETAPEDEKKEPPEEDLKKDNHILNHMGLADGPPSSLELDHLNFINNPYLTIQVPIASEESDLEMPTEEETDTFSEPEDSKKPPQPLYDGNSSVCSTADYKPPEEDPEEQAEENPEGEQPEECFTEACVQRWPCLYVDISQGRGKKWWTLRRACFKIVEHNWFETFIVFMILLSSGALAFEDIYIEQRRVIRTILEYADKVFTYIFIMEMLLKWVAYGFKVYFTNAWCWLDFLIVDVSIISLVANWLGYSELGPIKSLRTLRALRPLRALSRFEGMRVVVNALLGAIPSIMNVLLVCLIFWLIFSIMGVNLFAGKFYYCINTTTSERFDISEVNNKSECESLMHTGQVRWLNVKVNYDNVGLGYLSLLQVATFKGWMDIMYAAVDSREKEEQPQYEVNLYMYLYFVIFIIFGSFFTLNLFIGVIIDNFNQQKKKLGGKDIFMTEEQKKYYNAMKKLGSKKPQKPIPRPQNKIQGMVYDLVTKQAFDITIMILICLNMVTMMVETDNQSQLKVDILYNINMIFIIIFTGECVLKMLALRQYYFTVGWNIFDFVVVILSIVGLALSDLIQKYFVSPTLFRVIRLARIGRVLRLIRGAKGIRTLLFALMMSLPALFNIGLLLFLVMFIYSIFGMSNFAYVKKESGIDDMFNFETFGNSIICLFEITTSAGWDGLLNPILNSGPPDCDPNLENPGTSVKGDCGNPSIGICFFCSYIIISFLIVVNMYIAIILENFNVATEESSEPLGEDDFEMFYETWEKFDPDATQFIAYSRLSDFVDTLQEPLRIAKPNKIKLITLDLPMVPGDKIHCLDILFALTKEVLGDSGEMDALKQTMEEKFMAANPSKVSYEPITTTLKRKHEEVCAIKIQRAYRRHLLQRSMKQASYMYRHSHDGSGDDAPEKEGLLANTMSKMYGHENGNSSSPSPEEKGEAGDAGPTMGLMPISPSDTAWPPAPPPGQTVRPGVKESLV

In general, logP refers to the decadic logarithm of the partition coefficient of the neutral form, usually between octanol and water. What is called half-life is the time in which the quantity being followed falls by half. One may read the EC50 as the midpoint of the concentration-response curve. By inhibition is commonly meant how much of the control response was suppressed. As to `Cc1cc2nc(N)oc2c2ccccc12` [SKA-121, 5-Methylnaphtho[2,1-d]oxazol-2-amine], in series [1], the logP turned out to be 1.79. The oral availability entry in series [2] ([…] mg/kg oral vs i.v., mice) is “roughly 25%”. The concentration at 1 h was 1100 ± 100 nM in series [2] (male, C57Bl/6J, mouse, plasma, 10 mg/kg, […] mg/kg oral, mice, read-out: plasma level at 1 h after oral administration) and 483 ± 231 nM in series [2] (male, C57Bl/6J, mouse, plasma, intravenous, 10 mg/kg, […] mg/kg i.v., mice, read-out: total plasma concentration at 1 h). The concentration at 8 h in series [2] (male, C57Bl/6J, mouse, plasma, 10 mg/kg, […] mg/kg oral, mice, read-out: plasma level at 8 h after oral administration) is 27 ± 5 nM. Moreover, in series [2] (male, C57Bl/6J, mouse, plasma, intravenous, 10 mg/kg, […] mg/kg i.v., mice, read-out: total plasma concentration at 5 min), the concentration at 5 min was 21.3 ± 2.4 µM. Moreover, the concentration at 4 h in series [2] (male, C57Bl/6J, mouse, plasma, intravenous, 10 mg/kg, […] mg/kg i.v., mice, read-out: total plasma concentration at 4 h) was determined as 53 ± 44 nM. Also, the half-life in series [2] (male, C57Bl/6J, mouse, plasma, 10 mg/kg, mice, read-out: half-life) is about 20 min. In series [2] (male, C57Bl/6J, mouse, mice, averaged paired brain and plasma samples, read-out: brain/plasma ratio), the Kp was determined as 3.3 ± 2.9. Besides, the EC50 is 6.8 ± 2.2 µM in series [3]; 109 nM and 111 nM and ~110 nM in series [5] (250 nM free Ca2+, read-out: EC50 for KCa3.1 activation); 200 nM in series [5] (Appendix A, read-out: KCa3.1 EC50 (converted)); 109 nM in series [5] (Table 1, 250 nM free Ca2+, read-out: KCa3.1 EC50 (converted)). Also, the “Hill coefficient nH, KCa2.2 concentration-response curve” value in series [3] (FIG. 4 legend) amounted to 1.7. Besides, the “HR” value in series [4] is “did not; also recorded: no significant effects”. The “MAP” value in series [4] is “did not; also recorded: no significant effects”. Also, the “maximal KCa3.1 current increase” value in series [5] (250 nM free Ca2+) is “roughly 30 fold”. Further, the “Hill coefficient nH, KCa3.1 concentration-response curve” value in series [5] (FIG. 4 legend) came out at 3.0. Moreover, the “selectivity for KCa3.1 over the three KCa2 channels” value in series [5] (KCa2.1, KCa2.2 and KCa2.3) is 40-80 fold. Besides, the “selectivity for KCa3.1 over KCa2.3” value in series [5] (ratio of EC50 values) is about 40 fold. The compound further came in with an inhibition at 50 µM in series [6] (at 50 μM) of 25.7 ± 1.3%.

On to `Cc1cc2sc(N)nc2c2ccccc12` [SKA-111, 5-methylnaphtho[1,2-d]thiazol-2-amine], for which the “distribution from blood into tissue” value in series [2] ([…] mg/kg i.v., mice) is about 2 min. The “total brain concentrations probably achieved” value in series [2] (i.p. 100 mg/kg, for hours) is 10 to 30 µM. For the same compound, the half-life in series [2] (male, C57Bl/6J, mouse, plasma, 10 mg/kg, mice, read-out: elimination half-life (converted)) was 282 ± 36 min. In addition, the inhibition at 25 µM in series [6] (at 25 μM) was 33.4 ± 10.5%.

The values are drawn from US11173146B2, “Selective activators of the intermediate conductance CA2+activated K+ channel KCa3.1 and their methods of use” (The Regents of the University of California, priority 2014, dated 2021).
